{
  "source": "ChEMBL document CHEMBL1201862",
  "about": "“PubChem BioAssay data set” (2004)",
  "experiment_in_all_cases": "growth of human tumour cells (NCI), 48 h",
  "key": {"A498": {"tested_on": "A498"}, "A549": {"tested_on": "A549"}, "CCRF-CEM": {"tested_on": "CCRF-CEM"}, "COLO 205": {"tested_on": "COLO 205"}, "DLD-1": {"tested_on": "DLD-1"}, "DMS-114": {"tested_on": "DMS-114"}, "DMS-273": {"tested_on": "DMS-273"}, "EKVX": {"tested_on": "EKVX"}, "HCC 2998": {"tested_on": "HCC 2998"}, "HCT-116": {"tested_on": "HCT-116"}, "HCT-15": {"tested_on": "HCT-15"}, "HL-60": {"tested_on": "HL-60"}, "HOP-18": {"tested_on": "HOP-18"}, "HOP-62": {"tested_on": "HOP-62"}, "HOP-92": {"tested_on": "HOP-92"}, "HT-29": {"tested_on": "HT-29"}, "IGROV-1": {"tested_on": "IGROV-1"}, "K562": {"tested_on": "K562"}, "KM-20L2": {"tested_on": "KM-20L2"}, "KM12": {"tested_on": "KM12"}, "LOX IMVI": {"tested_on": "LOX IMVI"}, "M19-MEL": {"tested_on": "M19-MEL"}, "MCF7": {"tested_on": "MCF7"}, "MOLT-4": {"tested_on": "MOLT-4"}, "Malme-3M": {"tested_on": "Malme-3M"}, "NCI-H226": {"tested_on": "NCI-H226"}, "NCI-H23": {"tested_on": "NCI-H23"}, "NCI-H460": {"tested_on": "NCI-H460"}, "NCI-H522": {"tested_on": "NCI-H522"}, "NCI/ADR-RES": {"tested_on": "NCI/ADR-RES"}, "OVCAR-3": {"tested_on": "OVCAR-3"}, "OVCAR-4": {"tested_on": "OVCAR-4"}, "OVCAR-5": {"tested_on": "OVCAR-5"}, "OVCAR-8": {"tested_on": "OVCAR-8"}, "RPMI-8226": {"tested_on": "RPMI-8226"}, "RXF 393": {"tested_on": "RXF 393"}, "SF-268": {"tested_on": "SF-268"}, "SF-295": {"tested_on": "SF-295"}, "SF-539": {"tested_on": "SF-539"}, "SK-MEL-28": {"tested_on": "SK-MEL-28"}, "SK-MEL-2": {"tested_on": "SK-MEL-2"}, "SK-MEL-5": {"tested_on": "SK-MEL-5"}, "SK-OV-3": {"tested_on": "SK-OV-3"}, "SN12C": {"tested_on": "SN12C"}, "SNB-19": {"tested_on": "SNB-19"}, "SNB-75": {"tested_on": "SNB-75"}, "SNB-78": {"tested_on": "SNB-78"}, "SW-620": {"tested_on": "SW-620"}, "U-251": {"tested_on": "U-251"}, "UACC-257": {"tested_on": "UACC-257"}, "UACC-62": {"tested_on": "UACC-62"}, "UO-31": {"tested_on": "UO-31"}, "XF498": {"tested_on": "XF498"}},
  "note": "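Values below derive from 48-hour exposures of cells grown in 96-well plates, with endpoints linearly interpolated between the two concentrations bracketing the appropriate inhibition level. GI50 marks 50% less growth.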 Calls of active or inactive are those of the source. Cut-off read from the data, not from the text of the source: active = GI50 up to about 1.1 µM and inactive = higher.",
  "data": [
    {"smiles": "Cc1cc(/N=N/c2ccc(/N=N/c3c(O)c(S(=O)(=O)O)cc4cc(S(=O)(=O)O)ccc34)cc2C)ccc1/N=N/c1ccc2cc(S(=O)(=O)O)cc(S(=O)(=O)O)c2c1", "values": [
      {"measurement": "GI50", "setting": "A498", "value": "> 100 µM (inactive)"},
      {"measurement": "GI50", "setting": "A549", "value": "> 100 µM (inactive)"},
      {"measurement": "GI50", "setting": "CCRF-CEM", "value": "> 100 µM (inactive)"},
      {"measurement": "GI50", "setting": "COLO 205", "value": "> 100 µM (inactive)"},
      {"measurement": "GI50", "setting": "DLD-1", "value": "> 100 µM (inactive)"},
      {"measurement": "GI50", "setting": "DMS-114", "value": "> 100 µM (inactive)"},
      {"measurement": "GI50", "setting": "DMS-273", "value": "98.4 µM (inactive)"},
      {"measurement": "GI50", "setting": "EKVX", "value": "> 100 µM (inactive)"},
      {"measurement": "GI50", "setting": "HCC 2998", "value": "> 100 µM (inactive)"},
      {"measurement": "GI50", "setting": "HCT-116", "value": "> 100 µM (inactive)"},
      {"measurement": "GI50", "setting": "HCT-15", "value": "> 100", "unit": "µM"},
      {"measurement": "GI50", "setting": "HL-60", "value": "> 100 µM (inactive)"},
      {"measurement": "GI50", "setting": "HOP-18", "value": "> 100 µM (inactive)"},
      {"measurement": "GI50", "setting": "HOP-62", "value": "> 100 µM (inactive)"},
      {"measurement": "GI50", "setting": "HOP-92", "value": "> 68.5 µM (inactive)"},
      {"measurement": "GI50", "setting": "HT-29", "value": "> 31.6 µM (inactive)"},
      {"measurement": "GI50", "setting": "IGROV-1", "value": "> 100 µM (inactive)"},
      {"measurement": "GI50", "setting": "K562", "value": "> 100 µM (inactive)"},
      {"measurement": "GI50", "setting": "KM-20L2", "value": "54.8 µM (inactive)"},
      {"measurement": "GI50", "setting": "KM12", "value": "> 72.4 µM (inactive)"},
      {"measurement": "GI50", "setting": "LOX IMVI", "value": "> 100 µM (inactive)"},
      {"measurement": "GI50", "setting": "M19-MEL", "value": "> 100 µM (inactive)"},
      {"measurement": "GI50", "setting": "MCF7", "value": "> 100 µM (inactive)"},
      {"measurement": "GI50", "setting": "MOLT-4", "value": "> 100 µM (inactive)"},
      {"measurement": "GI50", "setting": "Malme-3M", "value": "> 100 µM (inactive)"},
      {"measurement": "GI50", "setting": "NCI-H226", "value": "> 50.2 µM (inactive)"},
      {"measurement": "GI50", "setting": "NCI-H23", "value": "> 100 µM (inactive)"},
      {"measurement": "GI50", "setting": "NCI-H460", "value": "> 100 µM (inactive)"},
      {"measurement": "GI50", "setting": "NCI-H522", "value": "> 100 µM (inactive)"},
      {"measurement": "GI50", "setting": "NCI/ADR-RES", "value": "> 100 µM (inactive)"},
      {"measurement": "GI50", "setting": "OVCAR-3", "value": "> 100 µM (inactive)"},
      {"measurement": "GI50", "setting": "OVCAR-4", "value": "> 100 µM (inactive)"},
      {"measurement": "GI50", "setting": "OVCAR-5", "value": "> 100 µM (inactive)"},
      {"measurement": "GI50", "setting": "OVCAR-8", "value": "> 31.6 µM (inactive)"},
      {"measurement": "GI50", "setting": "RPMI-8226", "value": "> 100 µM (inactive)"},
      {"measurement": "GI50", "setting": "RXF 393", "value": "> 100 µM (inactive)"},
      {"measurement": "GI50", "setting": "SF-268", "value": "> 100 µM (inactive)"},
      {"measurement": "GI50", "setting": "SF-295", "value": "> 77.1 µM (inactive)"},
      {"measurement": "GI50", "setting": "SF-539", "value": "> 100 µM (inactive)"},
      {"measurement": "GI50", "setting": "SK-MEL-28", "value": "> 100 µM (inactive)"},
      {"measurement": "GI50", "setting": "SK-MEL-2", "value": "> 100 µM (inactive)"},
      {"measurement": "GI50", "setting": "SK-MEL-5", "value": "> 100 µM (inactive)"},
      {"measurement": "GI50", "setting": "SK-OV-3", "value": "> 47 µM (inactive)"},
      {"measurement": "GI50", "setting": "SN12C", "value": "> 100 µM (inactive)"},
      {"measurement": "GI50", "setting": "SNB-19", "value": "> 100 µM (inactive)"},
      {"measurement": "GI50", "setting": "SNB-75", "value": "> 100 µM (inactive)"},
      {"measurement": "GI50", "setting": "SNB-78", "value": "> 100 µM (inactive)"},
      {"measurement": "GI50", "setting": "SW-620", "value": "> 100 µM (inactive)"},
      {"measurement": "GI50", "setting": "U-251", "value": "> 100 µM (inactive)"},
      {"measurement": "GI50", "setting": "UACC-257", "value": "> 100 µM (inactive)"},
      {"measurement": "GI50", "setting": "UACC-62", "value": "> 100 µM (inactive)"},
      {"measurement": "GI50", "setting": "UO-31", "value": "> 100 µM (inactive)"},
      {"measurement": "GI50", "setting": "XF498", "value": "> 73.5 µM (inactive)"}
    ]}
  ]
}
